Assay [1] has as its target T1, cathepsin K (mature, mCatK) (Homo sapiens, UniProt P43235).
T1 construct: gene CTSK; mature CatK, model residues Ala1 to Met215 plus N-terminal Gly-Arg (98p–99p) (from recombinant zymogen expressed in Pichia pastoris)
T1 sequence (P43235 113-329): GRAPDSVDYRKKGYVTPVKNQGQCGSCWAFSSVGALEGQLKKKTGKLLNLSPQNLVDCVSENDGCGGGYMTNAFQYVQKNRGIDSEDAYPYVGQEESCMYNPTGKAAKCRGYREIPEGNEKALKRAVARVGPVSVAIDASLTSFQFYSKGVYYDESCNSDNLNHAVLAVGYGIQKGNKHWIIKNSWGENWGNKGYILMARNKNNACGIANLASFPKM
The assay can be described thus: crystal structure […] Å (also with iCatK, 7QBO); Ki by slow-binding fluorogenic enzyme assay. Type of assay: biochemical. As to conditions: read-out: mCatK inhibition^a / Ki.

Assay [2] concerns the target T2, cathepsin K (mature, mCatK) (Homo sapiens, UniProt P43235).
T2 construct: gene CTSK; mature CatK, model residues Ala1 to Met215 (from recombinant zymogen expressed in Pichia pastoris)
T2 sequence (P43235 115-329): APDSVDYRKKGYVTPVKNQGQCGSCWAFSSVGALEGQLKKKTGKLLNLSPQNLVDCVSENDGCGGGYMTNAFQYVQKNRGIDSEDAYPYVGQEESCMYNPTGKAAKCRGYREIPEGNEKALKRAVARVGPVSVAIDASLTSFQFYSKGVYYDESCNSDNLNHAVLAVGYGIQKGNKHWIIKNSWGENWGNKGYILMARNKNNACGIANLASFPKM
Kind of assay: crystal structure […] Å (also with iCatK, 7QBM); Ki by fluorogenic enzyme assay (Morrison). As to conditions: read-out: mCatK inhibition^a / Ki. Type of assay: biochemical.

In the case of `CN(C#N)N(C)C(=O)[C@H](Cc1ccccc1)NC(=O)OCc1ccccc1` [Gü1303], in assay [1], the Ki worked out at 0.91 nM.

In the case of `CN(Cc1ccccc1)C(=O)CN(C#N)NC(=O)OC(C)(C)C` [Gü2602], in assay [2], the Ki was 0.013 nM.

These data come from PMC8843313, “Highly potent inhibitors of cathepsin K with a differently positioned cyanohydrazide warhead: structural analysis of binding mode to mature and zymogen-like enzymes” (Journal of Enzyme Inhibition and Medicinal Chemistry, 2022).
